{"source": "ChEMBL document CHEMBL3044542", "about": "(J Agric Food Chem, 2011)", "format_in_all_cases": "functional", "key": {"[1]": {"system": "Laodelphax striatellus", "assay": "Insecticidal activity against Laodelphax striatella (small brown planthopper) assessed as lethality at 10 to 100 ppm"}, "[2]": {"system": "Nephotettix cincticeps", "assay": "Insecticidal activity against Nephotettix cincticeps (green rice leafhopper) assessed as lethality at 1 to 10 ppm"}, "[3]": {"system": "Nephotettix cincticeps", "assay": "Insecticidal activity against Nephotettix cincticeps (green rice leafhopper) assessed as lethality at >1000 ppm"}, "[4]": {"system": "Nephotettix cincticeps", "assay": "Insecticidal activity against Nephotettix cincticeps (green rice leafhopper) assessed as lethality at 100 to 1000 ppm"}, "[5]": {"system": "Nephotettix cincticeps", "assay": "Insecticidal activity against Nephotettix cincticeps (green rice leafhopper) assessed as lethality at 0.1 to 1 ppm"}, "[6]": {"system": "Laodelphax striatellus", "assay": "Insecticidal activity against Laodelphax striatella (small brown planthopper) assessed as lethality at 0.1 to 1 ppm"}, "[7]": {"system": "Nephotettix cincticeps", "assay": "Insecticidal activity against Nephotettix cincticeps (green rice leafhopper) assessed as lethality at 10 to 100 ppm"}, "[8]": {"system": "Laodelphax striatellus", "assay": "Insecticidal activity against Laodelphax striatella (small brown planthopper) assessed as lethality at 100 to 1000 ppm"}, "[9]": {"system": "Laodelphax striatellus", "assay": "Insecticidal activity against Laodelphax striatella (small brown planthopper) assessed as lethality at 1 to 10 ppm"}, "[10]": {"system": "Laodelphax striatellus", "assay": "Insecticidal activity against Laodelphax striatella (small brown planthopper) assessed as lethality at >1000 ppm"}}}
{"smiles": "O=[N+]([O-])/N=C1\\NCCN1CC1CCOC1", "note": "(stereo not given)", "values": [{"measurement": "Activity", "setting": "[1]", "result": 70, "unit": "%"}, {"measurement": "Activity", "setting": "[2]", "result": 70, "unit": "%"}]}
{"smiles": "CN/C(=C\\[N+](=O)[O-])CCC1CCOC1", "note": "(stereo not given)", "values": [{"measurement": "Activity", "setting": "[3]", "result": 70, "unit": "%"}]}
{"smiles": "CC/C(=C\\[N+](=O)[O-])N(C)CC1CCOC1", "note": "(stereo not given)", "values": [{"measurement": "Activity", "setting": "[3]", "result": 70, "unit": "%"}]}
{"smiles": "N/C(=N\\[N+](=O)[O-])NCC1CCOC1", "note": "(stereo not given)", "values": [{"measurement": "Activity", "setting": "[4]", "result": 70, "unit": "%"}]}
{"smiles": "CN/C(=C\\[N+](=O)[O-])NCC1CCOC1", "note": "(stereo not given)", "values": [{"measurement": "Activity", "setting": "[5]", "result": 70, "unit": "%"}, {"measurement": "Activity", "setting": "[6]", "result": 70, "unit": "%"}]}
{"smiles": "CCN/C(=N\\[N+](=O)[O-])NCC1CCOC1", "note": "(stereo not given)", "values": [{"measurement": "Activity", "setting": "[7]", "result": 70, "unit": "%"}, {"measurement": "Activity", "setting": "[8]", "result": 70, "unit": "%"}]}
{"smiles": "CN(C)/C(=N\\[N+](=O)[O-])N(C)CC1CCOC1", "note": "(stereo not given)", "values": [{"measurement": "Activity", "setting": "[7]", "result": 70, "unit": "%"}, {"measurement": "Activity", "setting": "[1]", "result": 70, "unit": "%"}]}
{"smiles": "CN/C(=N\\[N+](=O)[O-])N(C)CC1CCOC1", "note": "(stereo not given)", "values": [{"measurement": "Activity", "setting": "[9]", "result": 70, "unit": "%"}, {"measurement": "Activity", "setting": "[2]", "result": 70, "unit": "%"}]}
{"smiles": "CN(C(=O)c1ccccc1)/C(=N\\[N+](=O)[O-])N(CC1CCOC1)C(=O)c1ccccc1", "note": "(stereo not given)", "values": [{"measurement": "Activity", "setting": "[5]", "result": 70, "unit": "%"}, {"measurement": "Activity", "setting": "[9]", "result": 70, "unit": "%"}]}
{"smiles": "CC(=O)N(C)/C(=N\\[N+](=O)[O-])N(CC1CCOC1)C(C)=O", "note": "(stereo not given)", "values": [{"measurement": "Activity", "setting": "[5]", "result": 70, "unit": "%"}, {"measurement": "Activity", "setting": "[6]", "result": 70, "unit": "%"}]}
{"smiles": "CN/C(=N\\[N+](=O)[O-])NCC1(C)CCOC1", "note": "(stereo not given)", "values": [{"measurement": "Activity", "setting": "[3]", "result": 70, "unit": "%"}, {"measurement": "Activity", "setting": "[10]", "result": 70, "unit": "%"}]}
{"smiles": "CN/C(=N\\[N+](=O)[O-])NCC1CCCOC1", "note": "(stereo not given)", "values": [{"measurement": "Activity", "setting": "[7]", "result": 70, "unit": "%"}, {"measurement": "Activity", "setting": "[8]", "result": 70, "unit": "%"}]}
{"smiles": "CCN(CC1CCOC1)/C(=C/[N+](=O)[O-])NC", "note": "(stereo not given)", "values": [{"measurement": "Activity", "setting": "[1]", "result": 70, "unit": "%"}, {"measurement": "Activity", "setting": "[2]", "result": 70, "unit": "%"}]}
{"smiles": "N#C/N=C1\\SCCCN1CC1CCOC1", "note": "(stereo not given)", "values": [{"measurement": "Activity", "setting": "[7]", "result": 70, "unit": "%"}, {"measurement": "Activity", "setting": "[1]", "result": 70, "unit": "%"}]}
{"smiles": "CN1COCN(CC2CCOC2)/C1=N/[N+](=O)[O-]", "note": "(stereo not given)", "values": [{"measurement": "Activity", "setting": "[4]", "result": 70, "unit": "%"}, {"measurement": "Activity", "setting": "[8]", "result": 70, "unit": "%"}]}
{"smiles": "C/C(=N\\C#N)N(C)CC1CCOC1", "note": "(stereo not given)", "values": [{"measurement": "Activity", "setting": "[4]", "result": 70, "unit": "%"}, {"measurement": "Activity", "setting": "[8]", "result": 70, "unit": "%"}]}
{"smiles": "O=[N+]([O-])/N=C1\\NCCN1Cc1ccoc1", "values": [{"measurement": "Activity", "setting": "[7]", "result": 70, "unit": "%"}, {"measurement": "Activity", "setting": "[1]", "result": 70, "unit": "%"}]}
{"smiles": "O=[N+]([O-])/N=C1\\NCCN1CCC1CCCCO1", "note": "(stereo not given)", "values": [{"measurement": "Activity", "setting": "[4]", "result": 70, "unit": "%"}, {"measurement": "Activity", "setting": "[8]", "result": 70, "unit": "%"}]}
{"smiles": "O=[N+]([O-])/N=C1\\NCCN1CCC1CCCO1", "note": "(stereo not given)", "values": [{"measurement": "Activity", "setting": "[4]", "result": 70, "unit": "%"}, {"measurement": "Activity", "setting": "[8]", "result": 70, "unit": "%"}]}
{"smiles": "O=C(OCCCN1CCN/C1=C\\[N+](=O)[O-])c1ccccc1", "values": [{"measurement": "Activity", "setting": "[4]", "result": 70, "unit": "%"}, {"measurement": "Activity", "setting": "[8]", "result": 70, "unit": "%"}]}
{"smiles": "COCCCN1CCN/C1=C\\[N+](=O)[O-]", "values": [{"measurement": "Activity", "setting": "[7]", "result": 70, "unit": "%"}, {"measurement": "Activity", "setting": "[8]", "result": 70, "unit": "%"}]}
{"smiles": "CC(=O)OCCCN1CCN/C1=C\\[N+](=O)[O-]", "values": [{"measurement": "Activity", "setting": "[4]", "result": 70, "unit": "%"}, {"measurement": "Activity", "setting": "[8]", "result": 70, "unit": "%"}]}
{"smiles": "O=C(OCCN1CCN/C1=C\\[N+](=O)[O-])c1ccccc1", "values": [{"measurement": "Activity", "setting": "[3]", "result": 70, "unit": "%"}, {"measurement": "Activity", "setting": "[8]", "result": 70, "unit": "%"}]}
{"smiles": "O=[N+]([O-])/C=C1\\NCCN1CCCO", "values": [{"measurement": "Activity", "setting": "[4]", "result": 70, "unit": "%"}, {"measurement": "Activity", "setting": "[8]", "result": 70, "unit": "%"}]}
{"smiles": "O=[N+]([O-])/C=C1\\NCCN1CCO", "values": [{"measurement": "Activity", "setting": "[3]", "result": 70, "unit": "%"}, {"measurement": "Activity", "setting": "[8]", "result": 70, "unit": "%"}]}
{"smiles": "COCCN1CCN/C1=C\\[N+](=O)[O-]", "values": [{"measurement": "Activity", "setting": "[7]", "result": 70, "unit": "%"}, {"measurement": "Activity", "setting": "[8]", "result": 70, "unit": "%"}]}
{"smiles": "CC(=O)OCCN1CCN/C1=C\\[N+](=O)[O-]", "values": [{"measurement": "Activity", "setting": "[3]", "result": 70, "unit": "%"}, {"measurement": "Activity", "setting": "[8]", "result": 70, "unit": "%"}]}
{"smiles": "CN/C(=N\\[N+](=O)[O-])NCC1CCOC1C", "note": "(mixture of isomers)", "values": [{"measurement": "Activity", "setting": "[3]", "result": 70, "unit": "%"}, {"measurement": "Activity", "setting": "[10]", "result": 70, "unit": "%"}]}
{"smiles": "CN/C(=N\\[N+](=O)[O-])NCC1COC(C)C1", "note": "(mixture of isomers)", "values": [{"measurement": "Activity", "setting": "[1]", "result": 70, "unit": "%"}, {"measurement": "Activity", "setting": "[2]", "result": 70, "unit": "%"}]}
{"smiles": "CCC1COCC1CN/C(=N/[N+](=O)[O-])NC", "note": "(mixture of isomers)", "values": [{"measurement": "Activity", "setting": "[3]", "result": 70, "unit": "%"}, {"measurement": "Activity", "setting": "[10]", "result": 70, "unit": "%"}]}
{"smiles": "CN/C(=N\\[N+](=O)[O-])NCC1CC2CCC1O2", "note": "(mixture of isomers)", "values": [{"measurement": "Activity", "setting": "[3]", "result": 70, "unit": "%"}, {"measurement": "Activity", "setting": "[10]", "result": 70, "unit": "%"}]}
{"smiles": "CN/C(=N\\[N+](=O)[O-])NCC1COCC1C", "note": "(mixture of isomers)", "values": [{"measurement": "Activity", "setting": "[1]", "result": 70, "unit": "%"}, {"measurement": "Activity", "setting": "[2]", "result": 70, "unit": "%"}]}
{"smiles": "CN/C(=N/CC1CCOC1)N[N+](=O)[O-]", "note": "(stereo not given) [DINOTEFURAN]", "values": [{"measurement": "Activity", "setting": "[5]", "result": 70, "unit": "%"}, {"measurement": "Activity", "setting": "[6]", "result": 70, "unit": "%"}]}
{"smiles": "O=[N+]([O-])/N=C1\\NCCN1Cc1ccc(Cl)nc1", "note": "[IMIDACLOPRID]", "values": [{"measurement": "Activity", "setting": "[5]", "result": 70, "unit": "%"}, {"measurement": "Activity", "setting": "[6]", "result": 70, "unit": "%"}]}
